From patent publication US3960845A, “Process for preparing 7β-acylamino-7α-alkoxycephalosporins or 6β-acylamino-6α-alkoxypenicillins” (Sankyo Company Limited, priority 1974, dated 1976)
Converted amounts (≈) assume the structure as drawn. Like-named read-outs stand apart in the source and are kept apart here.

Tests used:
Assay type in all cases: cell-based
[1] = tested on: broad pathogenic microorganisms; experiment: antimicrobial activity; settings: result in words
[2] = tested on: Staphylococcus aureus (CP and PC resistant); experiment: Minimal inhibitory concentration; settings: I B: Staphylococcus aureus (CP and PC resistant)
Text: (§1) Minimal inhibitory concentrations of various microorganisms mcg/ml
1 B Staphylococcus aureus

[3] = tested on: Salmonella enteritidis Gaertner; experiment: Minimal inhibitory concentration; settings: for MIC: Salmonella enterica, read-out: Minimal inhibitory concentration
Text: as §1
VI Salmonella enteritidis Gaertner

E. coli NIHJ = experiment: Minimal inhibitory concentration; settings: II A: E. coli NIHJ; for MIC: Escherichia coli
Text: as §1

Proteus vulgaris = experiment: Minimal inhibitory concentration; settings: for MIC: read-out: Minimal inhibitory concentration
Text: as §1

[4] = tested on: Klebsiella neumoniae 846 (CER resistant); experiment: Minimal inhibitory concentration; settings: IV B: Klebsiella neumoniae 846 (CER resistant)
Text: as §1
IV B Klebsiella neumoniae 846 (CER resistant)

[5] = tested on: Shigella flexneri Komagome; experiment: Minimal inhibitory concentration; settings: III: Shigella flexneri Komagome; for MIC: read-out: Minimal inhibitory concentration
Text: as §1
III Shigella flexneri Komagome

Klebsiella neumoniae 806 = experiment: Minimal inhibitory concentration
Text: as §1
IV A Klebsiella neumoniae 806

[6] = tested on: E. coli 609 (CER resistant); experiment: Minimal inhibitory concentration; settings: for MIC: Escherichia coli, read-out: Minimal inhibitory concentration
Text: as §1
II B E. coli 609 (CER resistant)

[7] = tested on: Staphylococcus aureus 209p; experiment: Minimal inhibitory concentration; settings: for MIC: read-out: Minimal inhibitory concentration
Text: as §1
1 A Staphylococcus aureus 209p

[8] = VI: Salmonella enteritidis Gaertner
[9] = IV A: Klebsiella neumoniae 806, read-out: Minimal inhibitory concentration
[10] = I A: Staphylococcus aureus 209p
[11] = II B: E. coli 609 (CER resistant)

Row | Compound | antimicrobial activity against broad pathogenic microorganisms [1] | MIC [2] | MIC [3, 8] | MIC (E. coli NIHJ) | MIC (Proteus vulgaris; V: Proteus vulgaris) | MIC [4] | MIC [5] | MIC (Klebsiella neumoniae 806; [9]) | MIC [7, 10] | MIC [6, 11] | other results
1 | CO[C@@]1(NC(=O)CSc2nnc[nH]2)C(=O)N2C(C(=O)O)=C(COC(N)=O)CS[C@@H]21 [7β-(1,2,4-triazol-4H-3-yl)thioacetamido-7α-methoxy-3-carbamoyloxymethyl-3-cephem-4-carboxylic acid] | excellent antimicrobial activity | 6.2 µg/mL (≈ 13.9 µM) | 6.2 µg/mL (≈ 13.9 µM) | 6.2 µg/mL (≈ 13.9 µM) | 25 µg/mL (≈ 56.2 µM) | > 400 µg/mL | 12.5 µg/mL (≈ 28.1 µM) | 6.2 µg/mL (≈ 13.9 µM) | 1.5 µg/mL (≈ 3.37 µM) | – | MIC [6]: 12.5 µg/mL (≈ 28.1 µM)
2 | CO[C@@]1(NC(=O)CSc2nncs2)C(=O)N2C(C(=O)O)=C(CSc3nnnn3C)CS[C@@H]21 [7β-(1,3,4-thiadiazol-2-yl)thioacetamido-7α-methoxy-3-(1-methyl-1H-tetrazol-5-yl)thiomethyl-3-cephem-4-carboxylic acid] | excellent antimicrobial activity | 0.8 µg/mL (≈ 1.55 µM) | 0.8 µg/mL (≈ 1.55 µM) | 1.5 µg/mL (≈ 2.9 µM) | 3.1 µg/mL (≈ 6 µM) | > 200 µg/mL | 1.5 µg/mL (≈ 2.9 µM) | 1.5 µg/mL (≈ 2.9 µM) | 0.4 µg/mL (≈ 0.774 µM) | 1.5 µg/mL (≈ 2.9 µM) | –
3 | CO[C@@]1(NC(=O)CSc2nncs2)C(=O)N2C(C(=O)O)=C(COC(C)=O)CS[C@@H]21 [7β-(1,3,4-thiadiazol-2-yl)thioacetamido-7α-methoxy-3-acetoxymethyl-3-cephem-4-carboxylic acid] | excellent antimicrobial activity | 1.5 µg/mL (≈ 3.26 µM) | 3.4 µg/mL (≈ 7.38 µM) | 3.1 µg/mL (≈ 6.73 µM) | 6.2 µg/mL (≈ 13.5 µM) | > 400 µg/mL | 6.2 µg/mL (≈ 13.5 µM) | 3.1 µg/mL (≈ 6.73 µM) | 0.8 µg/mL (≈ 1.74 µM) | 6.2 µg/mL (≈ 13.5 µM) | –
4 | CO[C@@]1(NC(=O)CSc2nncs2)C(=O)N2C(C(=O)O)=C(COC(N)=O)CS[C@@H]21 [7β-(1,3,4-thiadiazol-2-yl)thioacetamido-7α-methoxy-3-carbamoyloxymethyl-3-cephem-4-carboxylic acid] | excellent antimicrobial activity | 1.5 µg/mL (≈ 3.25 µM) | 1.5 µg/mL (≈ 3.25 µM) | 3.1 µg/mL (≈ 6.72 µM) | 6.2 µg/mL (≈ 13.4 µM) | > 400 µg/mL | 3.1 µg/mL (≈ 6.72 µM) | 3.1 µg/mL (≈ 6.72 µM) | 0.4 µg/mL (≈ 0.867 µM) | 3.1 µg/mL (≈ 6.72 µM) | –
5 | CO[C@@]1(NC(=O)CSc2ccon2)C(=O)N2C(C(=O)O)=C(COC(C)=O)CS[C@@H]21 [7β-(3-isoxazolyl)thioacetamido-7α-methoxy-3-acetoxymethyl-3-cephem-4-carboxylic acid] | excellent antimicrobial activity | 0.8 µg/mL (≈ 1.8 µM) | 1.5 µg/mL (≈ 3.38 µM) | 3.1 µg/mL (≈ 6.99 µM) | 3.1 µg/mL (≈ 6.99 µM) | > 400 µg/mL | 6.2 µg/mL (≈ 14 µM) | 3.1 µg/mL (≈ 6.99 µM) | 0.2 µg/mL (≈ 0.451 µM) | 6.2 µg/mL (≈ 14 µM) | –
6 | CO[C@@]1(NC(=O)COc2ccon2)C(=O)N2C(C(=O)O)=C(CSc3nnnn3C)CS[C@@H]21 [7β-(3-isoxazolyloxy)acetamido-7α-methoxy-3-(1-methyl-1H-tetrazol-5-yl)thiomethyl-3-cephem-4-carboxylic acid] | excellent antimicrobial activity | – | – | – | – | – | – | – | – | – | Minimal inhibitory concentration [2]: 0.8 µg/mL (≈ 1.65 µM); Minimal inhibitory concentration [3, 8]: 1.5 µg/mL (≈ 3.1 µM); Minimal inhibitory concentration (E. coli NIHJ): 3.1 µg/mL (≈ 6.41 µM); Minimal inhibitory concentration (Proteus vulgaris; V: Proteus vulgaris): 6.2 µg/mL (≈ 12.8 µM); Minimal inhibitory concentration [4]: > 400 µg/mL; Minimal inhibitory concentration [5]: 3.1 µg/mL (≈ 6.41 µM); Minimal inhibitory concentration (Klebsiella neumoniae 806; IV A: Klebsiella neumoniae 806): 3.1 µg/mL (≈ 6.41 µM); Minimal inhibitory concentration [6, 11]: 3.1 µg/mL (≈ 6.41 µM); Minimal inhibitory concentration [7, 10]: 0.2 µg/mL (≈ 0.414 µM)
7 | CO[C@@]1(NC(=O)COc2ccon2)C(=O)N2C(C(=O)O)=C(COC(C)=O)CS[C@@H]21 [7β-(3-isoxazolyloxy)acetamido-7α-methoxy-3-acetoxymethyl-3-cephem-4-carboxylic acid] | excellent antimicrobial activity | 0.8 µg/mL (≈ 1.87 µM) | 3.1 µg/mL (≈ 7.25 µM) | 6.2 µg/mL (≈ 14.5 µM) | – | > 400 µg/mL | 12.5 µg/mL (≈ 29.2 µM) | 6.2 µg/mL (≈ 14.5 µM) | ≤ 0.1 µg/mL | 6.2 µg/mL (≈ 14.5 µM) | MIC (Proteus vulgaris; Proteus vulgaris): 12.5 µg/mL (≈ 29.2 µM)
8 | CO[C@@]1(NC(=O)CSc2nnc(C)s2)C(=O)N2C(C(=O)O)=C(CSc3nnnn3C)CS[C@@H]21 [7β-(5-methyl-1,3,4-thiadiazol-2-yl)thioacetamido-7α-methoxy-3-(1-methyl-1H-tetrazol-5-yl)thiomethyl-3-cephem-4-carboxylic acid] | excellent antimicrobial activity | 1.5 µg/mL (≈ 2.83 µM) | 1.5 µg/mL (≈ 2.83 µM) | 12.5 µg/mL (≈ 23.6 µM) | 3.1 µg/mL (≈ 5.84 µM) | 400 µg/mL (≈ 754 µM) | 6.2 µg/mL (≈ 11.7 µM) | 12.5 µg/mL (≈ 23.6 µM) | 0.4 µg/mL (≈ 0.754 µM) | 12.5 µg/mL (≈ 23.6 µM) | –
9 | CO[C@@]1(NC(=O)CSc2nnc(C)s2)C(=O)N2C(C(=O)O)=C(COC(N)=O)CS[C@@H]21 [7β-(5-methyl-1,3,4-thiadiazol-2-yl)thioacetamido-7α-methoxy-3-carbamoyloxymethyl-3-cephem-4-carboxylic acid] | excellent antimicrobial activity | 3.1 µg/mL (≈ 6.52 µM) | 3.1 µg/mL (≈ 6.52 µM) | 6.2 µg/mL (≈ 13 µM) | 6.2 µg/mL (≈ 13 µM) | > 200 µg/mL | 12.5 µg/mL (≈ 26.3 µM) | 6.2 µg/mL (≈ 13 µM) | 0.8 µg/mL (≈ 1.68 µM) | 6.2 µg/mL (≈ 13 µM) | –
10 | CO[C@@]1(NC(=O)CSc2ncc[nH]2)C(=O)N2C(C(=O)O)=C(CSc3nnnn3C)CS[C@@H]21 [7β-(imidazol-2-yl)thioacetamido-7α-methoxy-3-(1-methyl-1H-tetrazol-5-yl)thiomethyl-3-cephem-4-carboxylic acid] | excellent antimicrobial activity | 3.1 µg/mL (≈ 6.22 µM) | 3.1 µg/mL (≈ 6.22 µM) | 6.2 µg/mL (≈ 12.4 µM) | 12.5 µg/mL (≈ 25.1 µM) | > 200 µg/mL | 6.2 µg/mL (≈ 12.4 µM) | 6.2 µg/mL (≈ 12.4 µM) | 0.8 µg/mL (≈ 1.6 µM) | 6.2 µg/mL (≈ 12.4 µM) | –
11 | CO[C@@]1(NC(=O)CSc2ncc[nH]2)C(=O)N2C(C(=O)O)=C(COC(C)=O)CS[C@@H]21 [7β-(imidazol-2-yl)thioacetamido-7α-methoxy-3-acetoxymethyl-3-cephem-4-carboxylic acid] | excellent antimicrobial activity | 6.2 µg/mL (≈ 14 µM) | 6.2 µg/mL (≈ 14 µM) | 12.5 µg/mL (≈ 28.3 µM) | 25 µg/mL (≈ 56.5 µM) | > 400 µg/mL | 25 µg/mL (≈ 56.5 µM) | 12.5 µg/mL (≈ 28.3 µM) | 1.5 µg/mL (≈ 3.39 µM) | 25 µg/mL (≈ 56.5 µM) | –
12 | CO[C@@]1(NC(=O)CSCC#N)C(=O)N2C(C(=O)O)=C(CSc3nnnn3C)CS[C@@H]21 [7β-cyanomethylthioacetamido-7α-methoxy-3-(1-methyl-1H-tetrazol-5-yl)thiomethyl-3-cephem-4-carboxylic acid] | excellent antimicrobial activity | 0.8 µg/mL (≈ 1.7 µM) | – | – | – | > 200 µg/mL | 0.8 µg/mL (≈ 1.7 µM) | – | – | 0.8 µg/mL (≈ 1.7 µM) | MIC ([3]; ENTERITIDIS): 0.2 µg/mL (≈ 0.424 µM); MIC (Proteus vulgaris; Proteus vulgaris): 1.5 µg/mL (≈ 3.18 µM); MIC (Klebsiella neumoniae 806; Klebsiella, 806, read-out: Minimal inhibitory concentration): 0.8 µg/mL (≈ 1.7 µM); MIC ([7]; Staphylococcus aureus, 209P): 0.2 µg/mL (≈ 0.424 µM)
